# Data published in patent US20140161767A1, “FOLLICLE-STIMULATING HORMONE (FSH)/LYTIC DOMAIN FUSION CONSTRUCTS AND METHODS OF MAKING AND USING SAME” (BOARD OF SUPERVISORS OF LOUISIANA STATE UNIVERSITY AND …, priority 2012, published 2014).
# Tests used:
# [1] = test system: Panc-1; experiment: Cell viability after 4 hours (Cell Titer Glo), Panc-1; assay type: cell-based, human; conditions: 4 h incubation; read-out: Activities [μM] Panc1 (p18)
# Procedure: (§1) Human ovarian cancer cell lines OVCAR-3 (p 41), SKOV-3 (p 35) and the human uterine sarcoma cell line MES-SA-Dx5 (p 61) (multi-drug resistant clone), the human pancreatic cancer cell line Panc-1 (passage number 18), and human triple negative breast cancer cell line MDA-MB-231 (passage number 47) were grown in ATCC recommended medium, 10% fetal bovine serum, 100 IU/ml penicillin, 100 microg/ml streptomycin. Cells were typically seeded (2,000 cells per well) into 96 well plates and media was replaced after 48 hours of incubation. […] Each Phor-18-hFSH-β81-89 conjugate provided in lyophilized form was dissolved in saline and added to cells. The duration of incubation was 4 hours at 37° C. Cell viability was assessed after 4 hours using a luminometric assays (Promega, Cell Titer Glo, G755B, lot #00000031421). Controls contained saline or 0.1% triton as reference for 0 and 100% cell death, respectively.
# (§2) Data were processed and analyzed using GraphPad Prism version 5.00 for Windows, GraphPad Software, San Diego Calif. USA, www.graphpad.com”. Statistical analysis for significance was determined by a two-tailed Student's T-test. Each study was conducted to achieve an N of at least 6.
# (§3) In vitro activities were expressed as IC50 values for each cell line, time point and compound tested that were calculated using the Hill equation (Graph Pad Prizm software).
# [2] = test system: OVCAR-3; experiment: Cell viability after 4 hours (Cell Titer Glo), OVCAR-3; assay type: cell-based, human; conditions: 4 h incubation; read-out: Activities [μM] OVCAR-3 (p41)
# Procedure: as §1, §2, §3
# [3] = test system: SKOV-3; experiment: Cell viability after 4 hours (Cell Titer Glo), SKOV-3; assay type: cell-based, human; conditions: 4 h incubation; read-out: Activities [μM] SKOV-3 (p35)
# Procedure: as §1, §2, §3
# [4] = test system: MDA-MB-231; experiment: Cell viability after 4 hours (Cell Titer Glo), MDA-MB-231; assay type: cell-based, human; conditions: 4 h incubation; read-out: Activities [μM] MDA-MB-231 (p47)
# Procedure: as §1, §2, §3
# [5] = test system: OVCAR-3; experiment: IC50 in human cancer cell lines compared to cisplatinum: OVCAR-3; assay type: cell-based; conditions: ovarian cancer cell line
# Procedure: MDA-MB-435S.luc cells were grown in Leibovitz's L 15 medium, 10% fetal bovine serum, 0.01 mg/ml bovine insulin, 100 IU/ml penicillin, 100 microg/ml streptomycin. The cells were cultured in tight closed flasks. The incubations were conducted using 96 well plates at 10,000 cells per well. Cells were typically seeded into 96 well plates and media was replaced after 48 hours of incubation. Each assay was conducted at increasing concentrations of 0, 0.001, 0.01, 0.05, 0.1, 0.5, 1, 2, 5, 10 and 100 micromolar doses of lytic peptide-binding domain conjugate. Each lytic peptide-binding domain conjugate provided in lyophilized form and was freshly dissolved in saline and added to cells. The duration of incubation was typically 24 h, and cell viability assays were conducted using formazan conversion assays (MTT assay). Controls contained saline or 0.1% triton as reference for 0 and 100% cell death, respectively.
# To ascertain the IC50 of various fusion constructs on different human cancer cell lines compared to cisplatinum, IC50 of fusion constructs were evaluated as in Table 3.
# [6] = test system: MDA-MB-435S.luc xenograft; experiment: Mouse xenograft model of breast cancer, LHRH fusion constructs; assay type: in vivo, mice
# Procedure: For LHRH fusion constructs, the mouse xenograft model for breast cancer was used. In brief, Nu/Nu female mice, outbred strain, age 5 weeks (Charles River) were injected subcutaneously with a MDA-MB-435S.luc/Matrigel suspension (1×10^6 cells). Treatment was started on day 21 after tumor cell injection and continued on day 26 and 29. The doses for weekly fusion construct injections were 2, 0.2 and 0.02 mg/kg body weight, given as a bolus single injection. All mice were necropsied 34 days after tumor cell injection—baseline values for tumor weights were obtained by sacrificing 8 mice at treatment start. Primary tumors, liver, kidney, pancreas, heart, lung, and spleen were collected and prepared for histological evaluation in formalin. Tumor weights were recorded at necropsy, part of the tumors were frozen at −80° C. for luciferase assay determination.
# Characteristics of tumors at necropsy are summarized in FIG. 10: (A) tumor weight, (B) changes of tumor weights compared to baseline, (C) total number of live tumor cells, (D) changes of total live tumor cells compared to baseline, and (E) bodyweights at baseline and necropsy. Viability of tumor cells was determined at the end of the study when tumors were measured for luciferase activity. Treatment efficacy was calculated as difference between measurements at the beginning of treatment compared to the measurement at the end of study (FIGS. 10B and 10D).
# [7] = test system: OVCAR-3 cells; assay type: cell-based, human; conditions: OVCAR-3 (p47), values listed with increasing incubation time, times not stated
# Source text: (§4) Membranes of non-cancerous cell lines are neutral and are resistant to cytolytic peptides, in contrast to cancer cell lines, which have a high phosphatidic acid content in their outer membrane.
# (§5) The breast cancer cell lines studied were MDA-MB-4355 (estrogen receptor alpha negative), MCF-7 and T47D (estrogen receptor alpha positive), ovarian cancer cell lines (OVCAR-3 and SKOV-3), prostate cancer (LNCaP), the non-malignant breast epithelial cell line MCF-10A and the mouse fibroblast cell line NIH:3T3.
# (§6) Cells were seeded into 96 well plates at a densitiy of 10,000 cells/well. […] Controls contained USP saline or 0.1% TritonX-100™ as reference for 0 and 100% cell death, respectively. […] Cell viability was assessed through formazan conversion assay (MTT assay, (CellTiter 96 Aqueous One, Promega # G3582). Formazan conversion was determined using a BioRad Benchmark Plus microplate spectrophotometer dual wavelengths at 490/630 nm at room temperature).
# (§7) Data were calculated as fraction of absorption in TritonX-100™ containing wells representing 100% cell death versus 0% cell death in saline containing wells. Cytotoxicity was determined as IC50 using GraphPad Prism version 5.01 for Windows, GraphPad Software, San Diego Calif. […] 4 wells of each individual set of two 96 well plates were compared and analyzed. Statistical analysis for significance was determined by a two-tailed Student's T-test.
# [8] = test system: SKOV-3 cells; assay type: cell-based, human; conditions: SKOV-3, 24 hours incubation; read-out: IC50 (maximal efficacy)
# Source text: as §4, §5, §6, §7
# [9] = test system: NIH:3T3; assay type: cell-based, mouse; conditions: non cancerous cell line 3T3
# Source text: as §4, §5, §6, §7
Substance,IC50 [1],IC50 [2],IC50 [3],IC50 [4],IC50 [5],"Concentrations resulting in tumor weights similar to baseline ([6]; mouse, in vivo)","In vivo tumor efficacy compared to reference Phor21-βCG-ala (tumor weight, viable tumor cells) ([6]; mouse, in vivo)",Tumor volume after 30 days compared to baseline ([6]; p<0.01),IC50 [7],IC50 [8],IC50 [9]
KFAKFAK KFAKFAK KFAK [Phor18],18.9 ± 0.2 µM,20.5 ± 5.1 µM,21.7 ± 3.6 µM,18.9 ± 0.8 µM,,,,,,,
KFAKFAKKFAKFAKKFAKQHWSYGLRPG [Phor18-LHRH],,,,,3 ± 0.5 µM,0.2 mg/kg,Equally effective,smallest tumor volumes,0.5 µM,11.5 µM,> 10 µM
